# Results taken from patent publication US11752188B2, “Compositions and methods for nutritional supplements” (DailyColors Health Inc., priority 2020, dated 2023).
# Target: T1, recombinant human CD73 (Homo sapiens, UniProt P21589)
# T1 construct: purchased BPS Bioscience 71184 (enzyme); kit #72055
# T1 sequence (P21589 27-549): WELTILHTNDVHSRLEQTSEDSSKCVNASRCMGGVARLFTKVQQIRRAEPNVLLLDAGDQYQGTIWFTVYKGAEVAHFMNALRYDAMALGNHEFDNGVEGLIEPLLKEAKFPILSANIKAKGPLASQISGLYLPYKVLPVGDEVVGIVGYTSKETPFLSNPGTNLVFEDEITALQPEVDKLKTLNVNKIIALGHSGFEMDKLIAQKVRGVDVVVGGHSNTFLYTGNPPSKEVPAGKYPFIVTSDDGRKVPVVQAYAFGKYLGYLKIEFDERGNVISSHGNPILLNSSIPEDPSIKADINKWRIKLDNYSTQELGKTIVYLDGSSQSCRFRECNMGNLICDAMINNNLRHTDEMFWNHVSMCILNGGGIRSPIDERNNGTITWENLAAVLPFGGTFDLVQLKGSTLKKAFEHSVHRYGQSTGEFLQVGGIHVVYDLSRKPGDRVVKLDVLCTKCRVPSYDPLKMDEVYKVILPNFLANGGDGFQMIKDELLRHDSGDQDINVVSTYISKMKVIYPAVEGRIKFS
# Assay: CD73 in vitro enzymatic assay (colorimetric 630 nm)
# Assay type: biochemical
# Source text: Here, D5 is the Yellow Blend, D9 is the Purple Blend, D21 is the Green Blend, D13 is the Red Blend, and D31 is CBD. As before, the red blend included Apple Extract, Pomegranate Extract, Tomato Powder, Beet; the green blend included Olive Extract, Rosemary Extract, Green Coffee Bean Extract, Kale; the orange/yellow blend included Onion Extract, Ginger Extract, Grapefruit Extract, Carrot; and the purple/blue blend included Grape, Blueberry Extract, Currant, Elderberry.
# Assay Conditions: In general, all assays points were done by following the CD39 and CD73 Inhibitor Screening Assay Kit protocol (BPS Bioscience, #79278 and 72055, respectively). The CD73 enzymatic reactions were conducted in duplicate at room temperature for 30 minutes in a 50 μl mixture containing assay buffer, […], CD73 enzymes, and the test compound. Test compounds were preincubated with the enzyme for 30 minutes. Reactions were started by addition of the substrate. The 50 μl reactions were carried out in a 96-well transparent plate. After enzymatic reactions, 100 μl of Colorimetric Detection Reagent was added to the reaction mix. After a 15 minutes incubation, absorbance was measured using a Tecan plate reader at 630 nm.
# Data Analysis: Enzyme activity assays were performed in duplicates at each concentration. The Absorbance intensity data were analyzed and compared. In the absence of the compound, the intensity in each data set was defined as 100% (Ce) activity. In the absence of enzyme, the intensity in each data set was defined as 0% (C0) activity.
structure (smiles),measurement,setting,value
Nc1ncnc2c1ncn2[C@@H]1O[C@H](COP(=O)(O)CP(=O)(O)O)[C@@H](O)[C@H]1O [AMPCP],Activity (%) Repeat 1,"0.1 μM, TABLE 93",81%
same,Activity (%) Repeat 2,"0.1 μM, TABLE 93",96%
same,Inhibition (%),"0.1 μM, TABLE 93",12%
same,Net Signal (Absorbance) Repeat 1,"0.1 μM, TABLE 93",0.14
same,Net Signal (Absorbance) Repeat 2,"0.1 μM, TABLE 93",0.17
same,Activity (%) Rep. 1,"1 μM, TABLE 90",92%
same,Activity (%) Rep. 2,"1 μM, TABLE 90",96%
same,Inhibition (%),"1 μM, TABLE 90",6%
same,Net absorbance Rep. 1,"1 μM, TABLE 90",0.368
same,Net absorbance Rep. 2,"1 μM, TABLE 90",0.383
same,Activity (%) Rep. 1,"1 μM, TABLE 91",89%
same,Activity (%) Rep. 2,"1 μM, TABLE 91",89%
same,Inhibition (%),"1 μM, TABLE 91",11%
same,Net absorbance Rep. 1,"1 μM, TABLE 91",0.30
same,Net absorbance Rep. 2,"1 μM, TABLE 91",0.30
same,Activity (%) Repeat 1,"1 μM, TABLE 93",53%
same,Activity (%) Repeat 2,"1 μM, TABLE 93",64%
same,Inhibition (%),"1 μM, TABLE 93",41%
same,Net Signal (Absorbance) Repeat 1,"1 μM, TABLE 93",0.09
same,Net Signal (Absorbance) Repeat 2,"1 μM, TABLE 93",0.11
same,Activity (%) Rep. 1,"10 μM, TABLE 90",74%
same,Activity (%) Rep. 2,"10 μM, TABLE 90",76%
same,Inhibition (%),"10 μM, TABLE 90",25%
same,Net absorbance Rep. 1,"10 μM, TABLE 90",0.298
same,Net absorbance Rep. 2,"10 μM, TABLE 90",0.306
same,Activity (%) Rep. 1,"10 μM, TABLE 91",52%
same,Activity (%) Rep. 2,"10 μM, TABLE 91",59%
same,Inhibition (%),"10 μM, TABLE 91",45%
same,Net absorbance Rep. 1,"10 μM, TABLE 91",0.18
same,Net absorbance Rep. 2,"10 μM, TABLE 91",0.20
same,Activity (%) Repeat 1,"10 μM, TABLE 93",20%
same,Activity (%) Repeat 2,"10 μM, TABLE 93",28%
same,Inhibition (%),"10 μM, TABLE 93",76%
same,Net Signal (Absorbance) Repeat 1,"10 μM, TABLE 93",0.04
same,Net Signal (Absorbance) Repeat 2,"10 μM, TABLE 93",0.05
same,Activity (%) Rep. 1,"100 μM, TABLE 90",17%
same,Activity (%) Rep. 2,"100 μM, TABLE 90",22%
same,Inhibition (%),"100 μM, TABLE 90",80%
same,Net absorbance Rep. 1,"100 μM, TABLE 90",0.071
same,Net absorbance Rep. 2,"100 μM, TABLE 90",0.089
same,Activity (%) Rep. 1,"100 μM, TABLE 91",13%
same,Activity (%) Rep. 2,"100 μM, TABLE 91",12%
same,Inhibition (%),"100 μM, TABLE 91",88%
same,Net absorbance Rep. 1,"100 μM, TABLE 91",0.04
same,Net absorbance Rep. 2,"100 μM, TABLE 91",0.04
